Drawing on ChEMBL document CHEMBL2062475, “Langkolide, a 32-membered macrolactone antibiotic produced by Streptomyces sp. Acta 3062” (J Nat Prod, 2012), this text covers Activity and IC50 for one compound.

Experiment [1] relates to Bacillus subtilis. Kind of experiment: Antibacterial activity against Bacillus subtilis DSM 347 after 14 to 16 hrs by resazurin reduction assay. The experiment is classed as functional, organism-based. In general terms: Resazurin is reduced to fluorescent resorufin, in cell work by metabolically active cells.
Experiment [2] relates to Cutibacterium acnes. Description: Antibacterial activity against Propionibacterium acnes DSM 1897 after 48 hrs by resazurin reduction assay. The experiment is classed as functional, organism-based.
In experiment [3] the test system is Mammaliicoccus lentus. Description: Antibacterial activity against Staphylococcus lentus DSM 6672 after 14 to 16 hrs by resazurin reduction assay. The experiment is classed as functional, organism-based.
Experiment [4] relates to Xanthomonas campestris. Kind of experiment: Antibacterial activity against Xanthomonas campestris DSM 2405 after 14 to 16 hrs by resazurin reduction assay. The experiment is classed as functional, organism-based.
Experiment [5] has as its system Nakaseomyces glabratus. Description: Antifungal activity against Candida glabrata DSM 6425 after 14 to 16 hrs by resazurin reduction assay. The class given is functional, organism-based.
The subject of experiment [6] is Candida albicans. Kind of experiment: Antifungal activity against Candida albicans DSM 1386 after 14 to 16 hrs by resazurin reduction assay. The experiment is classed as functional, organism-based.
In experiment [7] the test system is NIH3T3. Kind of experiment: Cytotoxicity against mouse NIH/3T3 cells after 24 hrs by CellTiter-Blue assay. The class given is functional, cell-based. The settings on record: NIH3T3, 24 h.
For experiment [8], the system named is HepG2. Description: Cytotoxicity against human HepG2 cells after 24 hrs by CellTiter-Blue assay. The experiment is classed as functional, cell-based. The following applies: HepG2, 24 h.
The subject of experiment [9] is HT-29. Description: Cytotoxicity against human HT-29 cells after 24 hrs by CellTiter-Blue assay. The class given is functional, cell-based. The following applies: HT-29, 24 h.
Experiment [10] has as its target 3',5'-cyclic-AMP phosphodiesterase 4B (Homo sapiens, UniProt Q07343). Kind of experiment: Inhibition of human recombinant PDE4B2 by HTS cAMP assay. A general note: cAMP levels reflect the balance of adenylyl cyclase and phosphodiesterase activity.
The target in experiment [11] is Glycogen synthase kinase-3 beta (Homo sapiens, UniProt P49841). Kind of experiment: Inhibition of recombinant GSK3beta by KinaseGlo assay. On the technique in general: Kinase-Glo measures the ATP left after a reaction by luminescence.

Active and inactive are the calls of the source. The calls are words filed in the database; no cut-off is given here.

Sequence of 3',5'-cyclic-AMP phosphodiesterase 4B (Q07343 whole entry): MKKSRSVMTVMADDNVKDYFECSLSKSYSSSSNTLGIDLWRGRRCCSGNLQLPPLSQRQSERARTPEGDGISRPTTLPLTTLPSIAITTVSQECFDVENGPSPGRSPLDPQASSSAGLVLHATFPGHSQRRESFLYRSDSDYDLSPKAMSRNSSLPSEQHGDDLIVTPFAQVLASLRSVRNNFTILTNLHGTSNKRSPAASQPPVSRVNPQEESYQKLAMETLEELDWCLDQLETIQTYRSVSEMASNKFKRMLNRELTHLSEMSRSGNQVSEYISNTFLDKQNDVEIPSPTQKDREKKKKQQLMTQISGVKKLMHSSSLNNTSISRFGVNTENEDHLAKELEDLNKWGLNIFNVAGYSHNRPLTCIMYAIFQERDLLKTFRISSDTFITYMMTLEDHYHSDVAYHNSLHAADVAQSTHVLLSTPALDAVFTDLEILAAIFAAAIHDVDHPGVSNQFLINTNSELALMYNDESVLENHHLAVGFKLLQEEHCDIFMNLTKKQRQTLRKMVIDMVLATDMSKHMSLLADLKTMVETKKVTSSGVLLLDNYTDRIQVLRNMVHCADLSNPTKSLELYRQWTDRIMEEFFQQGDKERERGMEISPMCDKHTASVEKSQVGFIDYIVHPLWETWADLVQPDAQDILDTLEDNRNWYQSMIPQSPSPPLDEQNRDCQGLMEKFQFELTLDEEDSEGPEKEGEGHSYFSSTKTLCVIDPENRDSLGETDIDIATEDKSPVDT
Sequence of Glycogen synthase kinase-3 beta (P49841 whole entry): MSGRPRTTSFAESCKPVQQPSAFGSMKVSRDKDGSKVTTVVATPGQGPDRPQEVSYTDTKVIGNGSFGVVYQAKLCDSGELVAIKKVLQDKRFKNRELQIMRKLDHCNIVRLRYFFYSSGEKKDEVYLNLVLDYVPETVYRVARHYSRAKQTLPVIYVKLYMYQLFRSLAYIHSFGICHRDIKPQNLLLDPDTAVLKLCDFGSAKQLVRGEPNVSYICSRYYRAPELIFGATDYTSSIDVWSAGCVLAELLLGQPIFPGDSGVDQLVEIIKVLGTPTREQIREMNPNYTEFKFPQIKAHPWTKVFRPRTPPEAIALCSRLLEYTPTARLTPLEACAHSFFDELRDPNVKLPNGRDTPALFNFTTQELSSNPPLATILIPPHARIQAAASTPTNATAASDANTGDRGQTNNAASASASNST

In general, IC50 refers to the concentration that inhibits the measured activity by half. As to `CC(=O)O[C@H]1C[C@@H](O)C[C@H](O)C[C@@H](O)[C@@H]2O[C@H]2[C@@H](C)[C@@H]([C@@H](C)[C@@H](O)[C@H](C)[C@@H](O)[C@@H](C)[C@@H](C)O[C@H]2CC[C@H](O[C@@H]3CC[C@@H](OC(=O)[C@H](C)[C@@H](O)/C(C)=C/c4ccc5c(c4)C(=O)C=CC5=O)[C@H](C)O3)[C@H](C)O2)OC(=O)/C=C/[C@H](C)[C@@H](O)C[C@H](O)/C=C/CC[C@@H](C)[C@@H](O)[C@H](O)[C@@]2(O)O[C@@H](C1)C[C@@H](O)[C@@H]2O` [LANGKOLIDE], the result in experiment [1], in experiment [2], in [3] and in [4] was inactive. The half-inhibitory concentration (IC50) in experiment [5] came out at 1000 nM; in experiment [6] it was 1230 nM; in experiment [7], 490 nM; in experiment [8], 2410 nM; in experiment [9], 1380 nM; in experiment [10] it was 480 nM. In addition, the IC50 in experiment [11] was determined as 2170 nM.
